Reference: ChEMBL document CHEMBL1141033, “First-in-class pan caspase inhibitor developed for the treatment of liver disease” (J Med Chem, 2005)

Legend:
Caspase-3 (Homo sapiens) = target: T1, Caspase-3 (Homo sapiens) (UniProt P42574); assay: Inhibitory activity against Caspase-3
T1 sequence (whole entry): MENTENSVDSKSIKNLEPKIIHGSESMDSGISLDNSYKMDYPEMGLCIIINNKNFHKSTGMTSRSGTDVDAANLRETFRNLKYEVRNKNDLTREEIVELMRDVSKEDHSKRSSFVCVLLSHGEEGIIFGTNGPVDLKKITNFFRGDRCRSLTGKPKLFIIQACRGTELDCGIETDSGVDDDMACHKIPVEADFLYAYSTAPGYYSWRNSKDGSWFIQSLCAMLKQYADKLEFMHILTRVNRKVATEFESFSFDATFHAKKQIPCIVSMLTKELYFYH

Caspase-1 (Mus musculus) = target: T2, Caspase-1 (Mus musculus) (UniProt P29452); assay: Inhibitory activity against murine Caspase-1
T2 sequence (whole entry): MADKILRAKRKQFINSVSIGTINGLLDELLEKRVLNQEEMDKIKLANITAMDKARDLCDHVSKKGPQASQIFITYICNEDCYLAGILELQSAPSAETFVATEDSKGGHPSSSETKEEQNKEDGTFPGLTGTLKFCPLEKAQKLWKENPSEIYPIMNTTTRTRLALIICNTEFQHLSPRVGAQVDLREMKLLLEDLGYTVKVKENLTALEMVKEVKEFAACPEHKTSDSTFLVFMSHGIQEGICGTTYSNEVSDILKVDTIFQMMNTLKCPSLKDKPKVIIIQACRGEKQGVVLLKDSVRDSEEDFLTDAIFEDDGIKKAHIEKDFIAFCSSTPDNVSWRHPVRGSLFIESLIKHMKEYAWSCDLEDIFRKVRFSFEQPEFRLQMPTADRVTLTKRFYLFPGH

Caspase-8 (Homo sapiens) = Caspase-8 (Homo sapiens) (UniProt Q14790); assay: Inhibitory activity against Caspase-8
Caspase-8 (Homo sapiens), sequence (Q14790 217-374 limits assumed): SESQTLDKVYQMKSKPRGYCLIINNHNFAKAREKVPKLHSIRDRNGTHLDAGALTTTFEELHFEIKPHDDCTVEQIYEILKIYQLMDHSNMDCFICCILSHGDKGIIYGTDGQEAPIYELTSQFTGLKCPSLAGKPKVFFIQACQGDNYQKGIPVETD
Caspase-8 (Homo sapiens), sequence (Q14790 385-479 limits assumed): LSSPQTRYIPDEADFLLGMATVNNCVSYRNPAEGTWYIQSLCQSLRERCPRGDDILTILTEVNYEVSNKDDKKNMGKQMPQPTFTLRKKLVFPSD

Jurkat = assay: Inhibitory concentration against JFas cells; assay type: functional, cell-based; details: Homo sapiens
Mus musculus [1] = assay: Effective dose required for pancaspase inhibition in a-Fas liver upon i.p. administration; details: ip
Caspase-6 (Homo sapiens) = target: T3, Caspase-6 (Homo sapiens) (UniProt P55212); assay: Inhibitory activity against Caspase-6
T3 sequence (whole entry): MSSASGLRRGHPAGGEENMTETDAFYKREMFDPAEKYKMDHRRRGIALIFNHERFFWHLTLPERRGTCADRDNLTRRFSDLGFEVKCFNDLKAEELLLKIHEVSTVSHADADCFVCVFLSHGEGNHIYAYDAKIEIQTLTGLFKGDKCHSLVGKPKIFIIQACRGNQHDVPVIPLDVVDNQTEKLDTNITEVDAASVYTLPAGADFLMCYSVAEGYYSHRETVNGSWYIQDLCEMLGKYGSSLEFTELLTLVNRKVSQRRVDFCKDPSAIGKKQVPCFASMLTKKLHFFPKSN

THP-1 = assay: Inhibitory concentration against THP-1 cells; assay type: functional, cell-based; details: Homo sapiens
Rattus norvegicus [2] = assay: Effective dose required for pancaspase inhibition in a-Fas liver after an i.p. administration; assay type: functional; details: ip
Mus musculus [3] = assay: Effective dose required for pancaspase inhibition in a-Fas liver upon i.p. administration; range = 0.02-0.16; details: ip
Mus musculus [4] = assay: Effective dose required for pancaspase inhibition in a-Fas liver upon i.p. administration; range = 0.02-0.11; details: ip
Rattus norvegicus [5] = assay: Effective dose required for pancaspase inhibition in a-Fas liver upon i.p. administration; range = 0.03-0.05; assay type: functional; details: ip
Mus musculus [6] = assay: Effective dose required for pancaspase inhibition in a-Fas liver upon i.p. administration; range = 0.06-0.12; details: ip

| Structure (SMILES) | k3/Ki (Caspase-3 (Homo sapiens)) | k3/Ki (Caspase-1 (Mus musculus)) | k3/Ki (Caspase-8 (Homo sapiens)) | IC50 (Jurkat) | k3/Ki (Caspase-6 (Homo sapiens)) | IC50 (THP-1) | ED50 (Mus musculus [1]) | ED50 (Rattus norvegicus [2]) | ED50 (Mus musculus [3]) | ED50 (Mus musculus [4]) | ED50 (Rattus norvegicus [5]) | ED50 (Mus musculus [6]) |
| --- | --- | --- | --- | --- | --- | --- | --- | --- | --- | --- | --- | --- |
| C[C@H](NC(=O)C(=O)Nc1cc(C(C)(C)C)ccc1C(C)(C)C)C(=O)N[C@@H](CC(=O)O)C(=O)COP(=O)(c1ccccc1)c1ccccc1 | 18300 M⁻¹ s⁻¹ | 2.71e+06 M⁻¹ s⁻¹ | 970000 M⁻¹ s⁻¹ | 109 nM | 7640 M⁻¹ s⁻¹ | 5870 nM | 0.5 mg/kg | – | – | – | – | – |
| C[C@H](NC(=O)C(=O)Nc1ccccc1-c1ccccc1)C(=O)N[C@@H](CC(=O)O)C(=O)COP(=O)(c1ccccc1)c1ccccc1 | 28400 M⁻¹ s⁻¹ | 5e+06 M⁻¹ s⁻¹ | 1.57e+06 M⁻¹ s⁻¹ | 3940 nM | 22700 M⁻¹ s⁻¹ | 4120 nM | – | 0.44 mg/kg | – | – | – | – |
| C[C@H](NC(=O)C(=O)Nc1ccccc1Oc1ccccc1)C(=O)N[C@@H](CC(=O)O)C(=O)COc1c(F)c(F)cc(F)c1F | 51000 M⁻¹ s⁻¹ | 960000 M⁻¹ s⁻¹ | 154000 M⁻¹ s⁻¹ | 530 nM | 5900 M⁻¹ s⁻¹ | 800 nM | – | – | – | – | – | – |
| C[C@H](NC(=O)C(=O)Nc1cc(C(C)(C)C)ccc1C(C)(C)C)C(=O)N[C@@H](CC(=O)O)C(=O)COC(=O)c1c(Cl)cccc1Cl | 30000 M⁻¹ s⁻¹ | 4.02e+06 M⁻¹ s⁻¹ | 68 M⁻¹ s⁻¹ | 1380 nM | 6400 M⁻¹ s⁻¹ | 3130 nM | – | – | – | – | – | – |
| C[C@H](NC(=O)C(=O)Nc1ccccc1C(C)(C)C)C(=O)N[C@@H](CC(=O)O)C(=O)COP(=O)(c1ccccc1)c1ccccc1 | 99100 M⁻¹ s⁻¹ | 2.16e+06 M⁻¹ s⁻¹ | 2.01e+06 M⁻¹ s⁻¹ | 81 nM | 52100 M⁻¹ s⁻¹ | 9090 nM | 0.14 mg/kg | – | – | – | – | – |
| Cc1c(C(=O)N[C@H](C(=O)NC(CC(=O)O)C(=O)CF)C(C)C)n(C)c2ccccc12 (stereo partly drawn) | 19000 M⁻¹ s⁻¹ | 10100 M⁻¹ s⁻¹ | 34400 M⁻¹ s⁻¹ | 1300 nM | 98000 M⁻¹ s⁻¹ | 10000 nM | – | – | – | – | – | – |
| O=C(O)CC(NC(=O)[C@@H]1Cc2cccc3c2N1C(=O)[C@@H](NC(=O)OCc1ccccc1)CC3)C(=O)CF (stereo partly drawn) | 960000 M⁻¹ s⁻¹ | 1.2e+07 M⁻¹ s⁻¹ | 98000 M⁻¹ s⁻¹ | 510 nM | 25000 M⁻¹ s⁻¹ | 300 nM | – | – | – | – | – | – |
| C[C@H](NC(=O)C(=O)Nc1ccccc1-c1ccccc1)C(=O)N[C@@H](CC(=O)O)C(=O)COC(=O)c1c(Cl)cccc1Cl | 29000 M⁻¹ s⁻¹ | 7.28e+06 M⁻¹ s⁻¹ | 342000 M⁻¹ s⁻¹ | 390 nM | 61000 M⁻¹ s⁻¹ | 4360 nM | – | – | – | – | – | – |
| C[C@H](NC(=O)C(=O)Nc1ccccc1)C(=O)N[C@@H](CC(=O)O)C(=O)COc1c(F)c(F)cc(F)c1F | 25400 M⁻¹ s⁻¹ | 127000 M⁻¹ s⁻¹ | 65300 M⁻¹ s⁻¹ | 670 nM | 31700 M⁻¹ s⁻¹ | 140 nM | – | – | – | – | – | – |
| C[C@H](NC(=O)C(=O)Nc1ccccc1Cl)C(=O)N[C@@H](CC(=O)O)C(=O)COP(=O)(c1ccccc1)c1ccccc1 | 211000 M⁻¹ s⁻¹ | 3.96e+06 M⁻¹ s⁻¹ | 1.41e+06 M⁻¹ s⁻¹ | 68 nM | 37100 M⁻¹ s⁻¹ | 1040 nM | – | – | – | – | 0.04 mg/kg | – |
| C[C@H](NC(=O)C(=O)Nc1ccccn1)C(=O)N[C@@H](CC(=O)O)C(=O)COc1c(F)c(F)cc(F)c1F | 44000 M⁻¹ s⁻¹ | 468000 M⁻¹ s⁻¹ | 201000 M⁻¹ s⁻¹ | 1040 nM | 23700 M⁻¹ s⁻¹ | 200 nM | – | – | – | – | – | – |
| C[C@H](NC(=O)C(=O)Nc1ccccc1Cl)C(=O)N[C@@H](CC(=O)O)C(=O)COC(=O)c1c(Cl)cccc1Cl | 256000 M⁻¹ s⁻¹ | 8.31e+06 M⁻¹ s⁻¹ | 109 M⁻¹ s⁻¹ | 1170 nM | 44000 M⁻¹ s⁻¹ | 320 nM | – | – | – | – | – | – |

Second part, led by results:

| k3/Ki (Caspase-3 (Homo sapiens)) | k3/Ki (Caspase-1 (Mus musculus)) | k3/Ki (Caspase-8 (Homo sapiens)) | IC50 (Jurkat) | k3/Ki (Caspase-6 (Homo sapiens)) | IC50 (THP-1) | Structure (SMILES) | ED50 (Mus musculus [1]) | ED50 (Rattus norvegicus [2]) | ED50 (Mus musculus [3]) | ED50 (Mus musculus [4]) | ED50 (Rattus norvegicus [5]) | ED50 (Mus musculus [6]) |
| --- | --- | --- | --- | --- | --- | --- | --- | --- | --- | --- | --- | --- |
| 309000 M⁻¹ s⁻¹ | 9.95e+06 M⁻¹ s⁻¹ | 332000 M⁻¹ s⁻¹ | 61 nM | 45600 M⁻¹ s⁻¹ | 190 nM | C[C@H](NC(=O)C(=O)Nc1ccccc1C(F)(F)F)C(=O)N[C@@H](CC(=O)O)C(=O)COc1c(F)c(F)cc(F)c1F | – | – | – | – | – | – |
| 44400 M⁻¹ s⁻¹ | 1.97e+06 M⁻¹ s⁻¹ | 617000 M⁻¹ s⁻¹ | 10 nM | 33600 M⁻¹ s⁻¹ | 540 nM | C[C@H](NC(=O)C(=O)Nc1ccccc1Cc1ccccc1)C(=O)N[C@@H](CC(=O)O)C(=O)COc1c(F)c(F)cc(F)c1F | – | – | – | – | – | – |
| 70000 M⁻¹ s⁻¹ | 1.14e+06 M⁻¹ s⁻¹ | 114000 M⁻¹ s⁻¹ | 160 nM | 19800 M⁻¹ s⁻¹ | 160 nM | C[C@H](NC(=O)C(=O)Nc1ccccc1F)C(=O)N[C@@H](CC(=O)O)C(=O)COc1c(F)c(F)cc(F)c1F | – | – | – | – | – | – |
| 236000 M⁻¹ s⁻¹ | 8.33e+06 M⁻¹ s⁻¹ | 4300 M⁻¹ s⁻¹ | 143 nM | 105000 M⁻¹ s⁻¹ | 11800 nM | C[C@H](NC(=O)C(=O)Nc1ccccc1C(C)(C)C)C(=O)N[C@@H](CC(=O)O)C(=O)COC(=O)c1c(Cl)cccc1Cl | 45.8 mg/kg | – | – | – | – | – |
| 21000 M⁻¹ s⁻¹ | 390000 M⁻¹ s⁻¹ | 2800 M⁻¹ s⁻¹ | 150 nM | 268 M⁻¹ s⁻¹ | 500 nM | C[C@H](NC(=O)C(=O)NC1CCCCC1)C(=O)N[C@@H](CC(=O)O)C(=O)COc1c(F)c(F)cc(F)c1F | – | – | – | – | – | – |
| 57000 M⁻¹ s⁻¹ | 1.7e+06 M⁻¹ s⁻¹ | 460000 M⁻¹ s⁻¹ | 86 nM | 18500 M⁻¹ s⁻¹ | 60 nM | C[C@H](NC(=O)C(=O)Nc1cccc2ccccc12)C(=O)N[C@@H](CC(=O)O)C(=O)COc1c(F)c(F)cc(F)c1F | – | – | – | – | – | – |
| 12000 M⁻¹ s⁻¹ | 1.52e+06 M⁻¹ s⁻¹ | 1.2e+06 M⁻¹ s⁻¹ | 56 nM | 7750 M⁻¹ s⁻¹ | > 32000 nM | C[C@H](NC(=O)C(=O)Nc1ccccc1-c1ccc[nH]1)C(=O)N[C@@H](CC(=O)O)C(=O)COc1c(F)c(F)cc(F)c1F | – | – | – | – | – | – |
| 219000 M⁻¹ s⁻¹ | 1.34e+07 M⁻¹ s⁻¹ | 228000 M⁻¹ s⁻¹ | 64 nM | 26000 M⁻¹ s⁻¹ | 540 nM | C[C@H](NC(=O)C(=O)Nc1ccccc1Cl)C(=O)N[C@@H](CC(=O)O)C(=O)COc1c(F)c(F)cc(F)c1F | – | – | 0.05 mg/kg | – | – | – |
| 38200 M⁻¹ s⁻¹ | 1.63e+07 M⁻¹ s⁻¹ | 365000 M⁻¹ s⁻¹ | 62 nM | 15400 M⁻¹ s⁻¹ | 1840 nM | C[C@H](NC(=O)C(=O)Nc1cc(C(C)(C)C)ccc1C(C)(C)C)C(=O)N[C@@H](CC(=O)O)C(=O)COc1c(F)c(F)cc(F)c1F | – | – | – | 0.05 mg/kg | – | – |
| 42000 M⁻¹ s⁻¹ | 270000 M⁻¹ s⁻¹ | 204000 M⁻¹ s⁻¹ | 200 nM | 31900 M⁻¹ s⁻¹ | 120 nM | C[C@H](NC(=O)C(=O)Nc1ccc2c(c1)CCC2)C(=O)N[C@@H](CC(=O)O)C(=O)COc1c(F)c(F)cc(F)c1F | – | – | – | – | – | – |
| 35500 M⁻¹ s⁻¹ | 674000 M⁻¹ s⁻¹ | 32500 M⁻¹ s⁻¹ | 300 nM | 37100 M⁻¹ s⁻¹ | 160 nM | C[C@H](NC(=O)C(=O)NCc1ccccc1)C(=O)N[C@@H](CC(=O)O)C(=O)COc1c(F)c(F)cc(F)c1F | – | – | – | – | – | – |
| 186000 M⁻¹ s⁻¹ | 1.34e+06 M⁻¹ s⁻¹ | 542000 M⁻¹ s⁻¹ | 75 nM | 25200 M⁻¹ s⁻¹ | 50 nM | C[C@H](NC(=O)C(=O)Nc1ccccc1Br)C(=O)N[C@@H](CC(=O)O)C(=O)COc1c(F)c(F)cc(F)c1F | – | – | – | – | – | – |
| 75700 M⁻¹ s⁻¹ | 689000 M⁻¹ s⁻¹ | 2.94e+06 M⁻¹ s⁻¹ | 25 nM | 58700 M⁻¹ s⁻¹ | 270 nM | C[C@H](NC(=O)C(=O)Nc1ccccc1C(C)(C)C)C(=O)N[C@@H](CC(=O)O)C(=O)COc1c(F)c(F)cc(F)c1F [EMRICASAN] | – | – | – | – | – | 0.08 mg/kg |
